Assay results taken from ChEMBL document CHEMBL5661973, “BI 2536, a potent and selective inhibitor of polo-like kinase 1, inhibits tumor growth in vivo” (Curr Biol, 2007).
Calls of active or inactive are those of the source. The rule behind the calls is not given here.

How the values were obtained:
Mus musculus = species: Mus musculus; assay: Inhibition of mouse Plk1
[1] = target: Tyrosine-protein kinase ABL1 (Homo sapiens, UniProt P00519); assay: Inhibition of Abl (unknown origin)
[2] = target: Serine/threonine-protein kinase B-raf (Homo sapiens, UniProt P15056); assay: Inhibition of B-RAF (unknown origin)
[3] = target: RAF proto-oncogene serine/threonine-protein kinase (Homo sapiens, UniProt P04049); assay: Inhibition of C-RAF (unknown origin)
[4] = target: Tyrosine-protein kinase CSK (Homo sapiens, UniProt P41240); assay: Inhibition of CSK (unknown origin)
[5] = target: Receptor tyrosine-protein kinase erbB-4 (Homo sapiens, UniProt Q15303); assay: Inhibition of ErbB4 (unknown origin)
[6] = target: Fibroblast growth factor receptor 3 (Homo sapiens, UniProt P22607); assay: Inhibition of FGFR3 (unknown origin)
Ephrin type-A receptor 3 = Ephrin type-A receptor 3 (Homo sapiens, UniProt P29320); assay: Inhibition of Hek (unknown origin)
[7] = target: Mitogen-activated protein kinase 8 (Homo sapiens, UniProt P45983); assay: Inhibition of JNK1 (unknown origin)
[8] = target: T1, Dual specificity mitogen-activated protein kinase kinase 1 (Homo sapiens, UniProt Q02750); assay: Inhibition of MEK1 (unknown origin)
[9] = target: T1, Dual specificity mitogen-activated protein kinase kinase 1; assay: Inhibition of MKK1 (unknown origin)
[10] = target: Serine/threonine-protein kinase Nek6 (Homo sapiens, UniProt Q9HC98); assay: Inhibition of Nek6 (unknown origin)
[11] = target: Mitogen-activated protein kinase 14 (Homo sapiens, UniProt Q16539); assay: Inhibition of p38alpha (unknown origin)
[12] = target: Mitogen-activated protein kinase 11 (Homo sapiens, UniProt Q15759); assay: Inhibition of p38beta (unknown origin)
[13] = target: Mitogen-activated protein kinase 12 (Homo sapiens, UniProt P53778); assay: Inhibition of p38gamma (unknown origin)
[14] = target: Serine/threonine-protein kinase PAK 2 (Homo sapiens, UniProt Q13177); assay: Inhibition of PAK2 (unknown origin)
[15] = target: Platelet-derived growth factor receptor alpha (Homo sapiens, UniProt P16234); assay: Inhibition of PDGFRa (unknown origin)
[16] = target: Platelet-derived growth factor receptor beta (Homo sapiens, UniProt P09619); assay: Inhibition of PDGFRb (unknown origin)
[17] = target: Phosphatidylinositol 4,5-bisphosphate 3-kinase catalytic subunit alpha isoform (Homo sapiens, UniProt P42336); assay: Inhibition of PI3Ka (unknown origin)
[18] = target: RAC-beta serine/threonine-protein kinase (Homo sapiens, UniProt P31751); assay: Inhibition of PKBbeta (unknown origin)
[19] = target: Macrophage-stimulating protein receptor (Homo sapiens, UniProt Q04912); assay: Inhibition of Ron (unknown origin)
[20] = target: Serine/threonine-protein kinase Sgk1 (Homo sapiens, UniProt O00141); assay: Inhibition of SGK (unknown origin)
Angiopoietin-1 receptor = Angiopoietin-1 receptor (Homo sapiens, UniProt Q02763); assay: Inhibition of Tie2 (unknown origin)
HeLa [21] = assay: Antimitotic activity against human HeLa cells assessed as arrest in G2/M phase measuring by accumulation in 4N DNA content at 10 nM incubated for 24 hrs by flow cytometric analysis; assay type: functional, cell-based
HeLa [22] = assay: Antimitotic activity against human HeLa cells assessed as cell cycle at 10 nM incubated for 2 hrs by immunofluorescence analysis; assay type: functional, cell-based
HeLa [23] = assay: Antimitotic activity against human HeLa cells assessed as change in anaphase at 25 nM incubated for 2 hrs by immunofluorescence analysis; assay type: functional, cell-based
HeLa [24] = assay: Antimitotic activity against human HeLa cells assessed as change in telophase at 25 nM incubated for 2 hrs by immunofluorescence analysis; assay type: functional, cell-based
HeLa [25] = assay: Antimitotic activity against human HeLa cells assessed as accumulation of mitotic cells with spindles at 25 nM incubated for 2 hrs by immunofluorescence analysis; assay type: functional, cell-based
HeLa [26] = assay: Antimitotic activity against human HeLa cells assessed as appearance and distribution of phenotypes at 50 nM incubated for 2 hrs by immunofluorescence analysis; assay type: functional, cell-based
HeLa [27] = assay: Antimitotic activity against human HeLa cells assessed as appearance of monopolar polo spindles at 100 to 1000 nM incubated for 2 hrs by immunofluorescence analysis; assay type: functional, cell-based; conditions: dose 100-1000 nM
HeLa [28] = assay: Antimitotic activity against human HeLa cells assessed as change in S phase at 60 nM incubated for 48 hrs by flow cytometric analysis; assay type: functional, cell-based
HeLa [29] = assay: Antimitotic activity against human HeLa cells assessed as cell arrest in G2/M phase at 60 nM incubated for 48 hrs by flow cytometric analysis; assay type: functional, cell-based
HeLa [30] = assay: Antimitotic activity against human HeLa cells assessed as DNA breakdown at 60 nM incubated after 24 hrs by flow cytometric analysis; assay type: functional, cell-based
HeLa [31] = assay: Antimitotic activity against human HeLa cells assessed as cell apoptosis at 60 nM incubated after 24 hrs by flow cytometric analysis; assay type: functional, cell-based
HeLa [32] = assay: Antimitotic activity against human HeLa cells assessed as DNA breakdown at 60 nM incubated after 48 hrs by flow cytometric analysis; assay type: functional, cell-based
HeLa [33] = assay: Antimitotic activity against human HeLa cells assessed as cell apoptosis at 60 nM incubated after 48 hrs by flow cytometric analysis; assay type: functional, cell-based
HeLa [34] = assay: Antimitotic activity against human HeLa cells assessed as accumulation in cleaved PARP p85 fragment at 60 nM incubated after 24 hrs by westernblot analysis; assay type: functional, cell-based
HeLa [35] = assay: Antimitotic activity against human HeLa cells assessed as accumulation in cleaved PARP p85 fragment at 60 nM incubated after 48 hrs by westernblot analysis; assay type: functional, cell-based
TERT-RPE1 [36] = assay: Antimitotic activity against hTERT-RPE1 cells assessed as mitotic cell appearing typical polo phenotype at 100 nM by immunofluorescence analysis relative to control; assay type: functional, Homo sapiens
TERT-RPE1 [37] = assay: Antimitotic activity against hTERT-RPE1 cells assessed as remaining cell arrest at 100 nM by immunofluorescence analysis relative to control; assay type: functional, Homo sapiens
BRO melanoma cell line = assay: Antiproliferative activity against human BRO melanoma cell line assessed as inhibition in cell growth incubated for 72 hrs by Alamar Blue dye based fluorescence spectrophotometric analysis; assay type: functional
HCT-116 [38] = assay: Antitumor activity against human HCT-116 cells xenografted female BomTac:NMRI-Foxn1nu mouse assessed as tumor suppression at 40 mg/kg, iv twice per week administrated for 2 consecutive days relative to control; assay type: functional; conditions: time 2 day
HCT-116 [39] = assay: Antitumor activity against human HCT-116 cells xenografted female BomTac:NMRI-Foxn1nu mouse assessed as T/C at 40 mg/kg, iv once per week administrated for 2 consecutive days relative to control; assay type: functional; conditions: time 4 day
[40] = Toxicity in against human HCT-116 cells xenografted female BomTac:NMRI-Foxn1nu mouse assessed as body weight change at 40 mg/kg, iv once per week administrated for 2 consecutive days; assay type: organism-based; conditions: in vivo, 48 h, time 2 day
[41] = Toxicity in against human HCT-116 cells xenografted female BomTac:NMRI-Foxn1nu mouse assessed as body weight change at 40 mg/kg, iv twice per week administrated for 2 consecutive days; assay type: organism-based; conditions: in vivo, 96 h, time 4 day
HCT-116 [42] = assay: Antitumor activity against human HCT-116 cells xenografted female BomTac:NMRI-Foxn1nu mouse assessed as induction in tumor regression at 50 mg/kg, iv twice per week administrated for 2 consecutive days relative to control; assay type: functional, organism-based; conditions: time 4.0 day
BXPC-3 = assay: Antitumor activity against human BXPC-3 cells xenografted female BomTac:NMRI-Foxn1nu mouse assessed as T/C at 50 mg/kg, iv twice per week administrated for 2 consecutive days relative to control; assay type: functional; conditions: time 4 day
A549 = assay: Antitumor activity against human A549 cells xenografted female BomTac:NMRI-Foxn1nu mouse assessed as T/C at 50 mg/kg, iv twice per week administrated for 2 consecutive days relative to control; assay type: functional; conditions: time 4 day
NCI-H460 [43] = assay: Antitumor activity against human NCI-H460 cells xenografted female BomTac:NMRI-Foxn1nu mouse assessed as increase in mitotic index at 60 mg/kg, iv after 24 hrs administration by immunohistochemical method; assay type: functional, organism-based
NCI-H460 [44] = assay: Antitumor activity against human NCI-H460 cells xenografted female BomTac:NMRI-Foxn1nu mouse assessed as increase in histone H3 phosphorylation at 60 mg/kg, iv after 24 hrs administration by immunohistochemical method; assay type: functional, organism-based
NCI-H460 [45] = assay: Antitumor activity against human NCI-H460 cells xenografted female BomTac:NMRI-Foxn1nu mouse assessed as appearance of massive tumor cell at 60 mg/kg, iv after 48 hrs administration by TUNEL staining; assay type: functional, organism-based
NCI-H460 [46] = assay: Antitumor activity against human NCI-H460 cells xenografted female BomTac:NMRI-Foxn1nu mouse assessed as appearance of cell apoptosis at 60 mg/kg, iv after 47 hrs administration by MRI assay; assay type: functional, organism-based
HCT-116 [47] = assay: Antitumor activity against human HCT-116 cells xenografted female BomTac:NMRI-Foxn1nu mouse assessed as apparent diffusion coefficient of water at 50 mg/kg, iv administration and measured on day 4 by MRI assay; assay type: functional, organism-based; conditions: time 4.0 day
HeLa S3 = assay: Antiproliferative activity against human HeLa S3 cells assessed as inhibition in cell growth incubated for 72 hrs by Alamar Blue dye based fluorescence spectrophotometric analysis; assay type: functional; conditions: HeLa S3, 72 h
HeLa [48] = assay: Antimitotic activity against human HeLa cells assessed as accumulation multipolar spindles at 100 to 2500 nM incubated for 2 hrs by immunofluorescence analysis; assay type: functional, cell-based; conditions: dose 100-2500 nM
HeLa [49] = assay: Antimitotic activity against human HeLa cells assessed as monopolar asters at 100 to 2500 nM incubated for 2 hrs by immunofluorescence analysis; assay type: functional, cell-based; conditions: dose 100-2500 nM
HeLa [50] = assay: Antimitotic activity against human HeLa cells assessed as centrosomal gamma tubulin recruitment at 100 to 2500 nM incubated for 2 hrs by immunofluorescence analysis; assay type: functional, cell-based; conditions: dose 100-2500 nM
HeLa [51] = assay: Antimitotic activity against human HeLa cells assessed as accumulation in depolymerization of microtubules in interphase cells at 2500 nM incubated for 2 hrs by immunostaining; assay type: functional, cell-based

T1 sequence (Q02750 whole entry): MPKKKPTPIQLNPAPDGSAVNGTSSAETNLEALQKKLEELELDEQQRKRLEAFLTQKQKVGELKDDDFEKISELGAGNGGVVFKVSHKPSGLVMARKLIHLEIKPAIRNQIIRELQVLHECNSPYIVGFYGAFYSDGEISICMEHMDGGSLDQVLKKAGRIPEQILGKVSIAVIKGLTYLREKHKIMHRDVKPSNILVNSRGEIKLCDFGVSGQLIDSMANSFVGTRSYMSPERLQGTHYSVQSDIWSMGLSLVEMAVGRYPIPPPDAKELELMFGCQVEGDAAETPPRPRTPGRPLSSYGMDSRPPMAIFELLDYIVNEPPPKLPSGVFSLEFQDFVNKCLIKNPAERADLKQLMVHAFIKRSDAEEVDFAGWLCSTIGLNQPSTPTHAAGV
Sequence of Tyrosine-protein kinase ABL1 (P00519 whole entry): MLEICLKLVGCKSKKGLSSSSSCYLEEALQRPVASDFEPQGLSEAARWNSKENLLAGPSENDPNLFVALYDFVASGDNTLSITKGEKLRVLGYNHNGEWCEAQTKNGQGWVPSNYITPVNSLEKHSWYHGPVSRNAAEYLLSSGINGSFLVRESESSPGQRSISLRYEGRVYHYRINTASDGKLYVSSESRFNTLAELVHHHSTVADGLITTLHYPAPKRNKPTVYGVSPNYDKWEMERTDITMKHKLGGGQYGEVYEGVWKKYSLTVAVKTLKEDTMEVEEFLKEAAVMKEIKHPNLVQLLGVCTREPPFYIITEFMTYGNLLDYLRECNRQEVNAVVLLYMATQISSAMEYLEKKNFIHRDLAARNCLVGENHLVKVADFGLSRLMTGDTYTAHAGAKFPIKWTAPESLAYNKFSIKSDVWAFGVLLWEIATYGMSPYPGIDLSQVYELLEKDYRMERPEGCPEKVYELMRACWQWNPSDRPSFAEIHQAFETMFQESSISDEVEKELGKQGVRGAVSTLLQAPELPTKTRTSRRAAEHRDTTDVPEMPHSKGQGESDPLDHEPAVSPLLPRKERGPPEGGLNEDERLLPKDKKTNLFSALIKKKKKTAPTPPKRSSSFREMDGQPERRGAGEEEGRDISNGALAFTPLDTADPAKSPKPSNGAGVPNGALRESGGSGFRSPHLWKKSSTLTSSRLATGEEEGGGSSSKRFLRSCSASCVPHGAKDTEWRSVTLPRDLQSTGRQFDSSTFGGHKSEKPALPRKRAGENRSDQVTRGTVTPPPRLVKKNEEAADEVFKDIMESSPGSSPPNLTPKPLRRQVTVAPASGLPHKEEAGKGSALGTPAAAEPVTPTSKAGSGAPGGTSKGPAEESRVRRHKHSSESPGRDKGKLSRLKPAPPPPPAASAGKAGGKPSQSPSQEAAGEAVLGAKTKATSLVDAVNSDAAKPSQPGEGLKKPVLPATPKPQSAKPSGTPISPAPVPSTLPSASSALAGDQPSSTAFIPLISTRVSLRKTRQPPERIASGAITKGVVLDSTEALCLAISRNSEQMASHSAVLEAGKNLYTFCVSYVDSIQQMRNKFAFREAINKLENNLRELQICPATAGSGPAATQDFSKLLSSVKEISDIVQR
Sequence of Serine/threonine-protein kinase Sgk1 (O00141 whole entry): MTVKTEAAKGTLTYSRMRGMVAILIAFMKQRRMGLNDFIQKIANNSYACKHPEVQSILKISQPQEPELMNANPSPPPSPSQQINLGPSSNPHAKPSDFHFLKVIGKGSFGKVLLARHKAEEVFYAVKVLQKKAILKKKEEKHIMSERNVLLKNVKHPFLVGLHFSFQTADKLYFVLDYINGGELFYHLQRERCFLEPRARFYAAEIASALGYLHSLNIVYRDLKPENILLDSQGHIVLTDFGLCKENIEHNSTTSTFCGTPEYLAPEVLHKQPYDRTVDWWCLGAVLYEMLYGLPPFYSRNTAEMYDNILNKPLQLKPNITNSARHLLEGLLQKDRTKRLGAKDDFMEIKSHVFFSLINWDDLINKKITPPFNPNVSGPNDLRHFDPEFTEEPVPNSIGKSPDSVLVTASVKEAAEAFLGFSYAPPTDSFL
Sequence of Mitogen-activated protein kinase 12 (P53778 whole entry): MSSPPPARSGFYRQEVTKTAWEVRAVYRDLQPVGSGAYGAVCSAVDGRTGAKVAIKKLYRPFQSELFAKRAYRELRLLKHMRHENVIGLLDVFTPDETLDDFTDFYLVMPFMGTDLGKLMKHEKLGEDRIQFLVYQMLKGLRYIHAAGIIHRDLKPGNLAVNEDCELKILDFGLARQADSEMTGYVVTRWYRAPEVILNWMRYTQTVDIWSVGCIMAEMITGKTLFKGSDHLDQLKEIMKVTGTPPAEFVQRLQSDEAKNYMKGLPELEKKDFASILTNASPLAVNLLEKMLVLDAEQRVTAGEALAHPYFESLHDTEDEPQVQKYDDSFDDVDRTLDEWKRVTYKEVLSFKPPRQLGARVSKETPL
Sequence of Phosphatidylinositol 4,5-bisphosphate 3-kinase catalytic subunit alpha isoform (P42336 whole entry, canonical isoform): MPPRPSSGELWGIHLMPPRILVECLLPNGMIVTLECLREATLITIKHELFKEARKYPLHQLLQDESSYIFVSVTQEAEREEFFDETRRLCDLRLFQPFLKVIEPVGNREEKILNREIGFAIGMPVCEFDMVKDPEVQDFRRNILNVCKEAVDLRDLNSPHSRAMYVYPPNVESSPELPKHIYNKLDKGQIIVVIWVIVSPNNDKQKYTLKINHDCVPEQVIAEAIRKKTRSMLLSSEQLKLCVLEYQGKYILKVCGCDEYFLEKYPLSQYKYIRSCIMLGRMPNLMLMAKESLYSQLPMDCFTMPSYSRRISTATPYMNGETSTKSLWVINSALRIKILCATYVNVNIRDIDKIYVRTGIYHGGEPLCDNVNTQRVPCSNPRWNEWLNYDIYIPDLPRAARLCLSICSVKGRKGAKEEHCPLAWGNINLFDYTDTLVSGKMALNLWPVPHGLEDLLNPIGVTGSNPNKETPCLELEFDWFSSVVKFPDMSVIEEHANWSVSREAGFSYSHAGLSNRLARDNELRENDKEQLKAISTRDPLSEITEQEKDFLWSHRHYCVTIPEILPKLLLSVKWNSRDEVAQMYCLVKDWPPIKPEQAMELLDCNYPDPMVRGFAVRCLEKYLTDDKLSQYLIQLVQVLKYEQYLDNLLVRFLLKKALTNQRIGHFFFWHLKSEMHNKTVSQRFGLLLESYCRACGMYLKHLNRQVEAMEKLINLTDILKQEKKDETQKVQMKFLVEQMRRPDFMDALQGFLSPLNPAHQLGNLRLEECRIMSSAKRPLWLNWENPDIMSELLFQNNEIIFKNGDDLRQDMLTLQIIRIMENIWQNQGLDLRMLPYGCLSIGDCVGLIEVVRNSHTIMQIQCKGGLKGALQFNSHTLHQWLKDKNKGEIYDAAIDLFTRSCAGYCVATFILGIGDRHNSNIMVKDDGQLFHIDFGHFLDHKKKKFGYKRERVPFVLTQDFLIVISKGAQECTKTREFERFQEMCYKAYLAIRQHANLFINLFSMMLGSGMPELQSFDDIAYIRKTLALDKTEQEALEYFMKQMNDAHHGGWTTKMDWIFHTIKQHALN
Sequence of RAC-beta serine/threonine-protein kinase (P31751 whole entry): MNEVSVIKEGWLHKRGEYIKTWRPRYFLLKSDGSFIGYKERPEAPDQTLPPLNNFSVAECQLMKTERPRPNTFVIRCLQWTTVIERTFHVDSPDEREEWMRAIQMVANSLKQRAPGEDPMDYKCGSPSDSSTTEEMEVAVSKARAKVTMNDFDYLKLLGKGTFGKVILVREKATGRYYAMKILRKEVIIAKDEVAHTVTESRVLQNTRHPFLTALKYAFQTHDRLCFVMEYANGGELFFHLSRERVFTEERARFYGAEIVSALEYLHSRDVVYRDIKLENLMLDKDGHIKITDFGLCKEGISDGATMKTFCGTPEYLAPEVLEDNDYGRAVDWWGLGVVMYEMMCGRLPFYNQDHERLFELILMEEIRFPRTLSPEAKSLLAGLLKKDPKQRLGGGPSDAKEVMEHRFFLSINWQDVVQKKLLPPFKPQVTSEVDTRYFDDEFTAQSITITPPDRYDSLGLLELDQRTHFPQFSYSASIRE
Sequence of Platelet-derived growth factor receptor beta (P09619 whole entry, canonical isoform): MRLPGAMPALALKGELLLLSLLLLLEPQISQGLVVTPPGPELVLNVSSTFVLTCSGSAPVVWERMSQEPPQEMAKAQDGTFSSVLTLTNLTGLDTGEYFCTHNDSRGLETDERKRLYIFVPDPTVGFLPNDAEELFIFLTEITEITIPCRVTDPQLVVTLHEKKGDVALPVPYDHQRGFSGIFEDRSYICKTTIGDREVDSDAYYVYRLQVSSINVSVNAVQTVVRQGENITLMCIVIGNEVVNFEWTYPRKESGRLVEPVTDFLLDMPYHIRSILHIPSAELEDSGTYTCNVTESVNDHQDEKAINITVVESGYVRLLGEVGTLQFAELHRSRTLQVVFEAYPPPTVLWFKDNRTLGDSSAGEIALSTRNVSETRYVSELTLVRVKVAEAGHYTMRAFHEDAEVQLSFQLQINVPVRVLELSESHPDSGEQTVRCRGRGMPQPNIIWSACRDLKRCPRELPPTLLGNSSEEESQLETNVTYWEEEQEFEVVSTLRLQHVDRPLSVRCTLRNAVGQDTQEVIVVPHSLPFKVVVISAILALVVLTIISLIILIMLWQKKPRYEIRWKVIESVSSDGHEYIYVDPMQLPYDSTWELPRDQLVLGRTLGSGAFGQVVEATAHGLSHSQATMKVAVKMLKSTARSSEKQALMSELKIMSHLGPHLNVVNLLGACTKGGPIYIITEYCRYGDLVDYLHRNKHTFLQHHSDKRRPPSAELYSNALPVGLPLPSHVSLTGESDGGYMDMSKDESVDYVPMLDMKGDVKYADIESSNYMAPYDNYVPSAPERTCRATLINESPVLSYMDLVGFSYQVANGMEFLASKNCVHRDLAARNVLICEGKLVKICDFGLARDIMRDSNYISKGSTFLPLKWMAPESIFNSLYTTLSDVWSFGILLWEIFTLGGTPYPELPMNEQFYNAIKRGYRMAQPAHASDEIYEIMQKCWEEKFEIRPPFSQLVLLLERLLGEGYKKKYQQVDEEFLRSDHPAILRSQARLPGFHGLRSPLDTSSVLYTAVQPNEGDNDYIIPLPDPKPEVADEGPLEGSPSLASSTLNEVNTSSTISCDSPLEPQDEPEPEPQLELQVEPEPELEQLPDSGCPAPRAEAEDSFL

In the case of `CC[C@@H]1C(=O)N(C)c2cnc(Nc3ccc(C(=O)NC4CCN(C)CC4)cc3OC)nc2N1C1CCCC1` [BI-2536], the inhibition (Mus musculus) is reported as “Active”, the IC50 [1] is reported as greater than 10 µM and the IC50 [2] is reported as greater than 10 µM. The IC50 [3] was greater than 10 µM, the IC50 [4] was greater than 10 µM and the IC50 [5] was 9.91 µM. It also gave an IC50 [6] greater than 10 µM, an IC50 (Ephrin type-A receptor 3) greater than 10 µM and an IC50 [7] greater than 10 µM. The IC50 [8] was greater than 10 µM, the IC50 [9] was greater than 10 µM and the IC50 [10] was greater than 10 µM. It also gave an IC50 [11] greater than 10 µM, an IC50 [12] greater than 10 µM and an IC50 [13] greater than 10 µM. The IC50 [14] was greater than 10 µM, the IC50 [15] was greater than 10 µM and the IC50 [16] was greater than 10 µM. For the same compound, the IC50 [17] was 2.41 µM, the IC50 [18] was greater than 10 µM and the IC50 [19] was greater than 10 µM. The IC50 [20] was greater than 10 µM, the IC50 (Angiopoietin-1 receptor) was 6.55 µM and the Activity (HeLa [21]) was “Active”. The Activity (HeLa [22]) was “Active”, the Activity (HeLa [23]) was “inactive” and the Activity (HeLa [24]) was “inactive”. The Activity (HeLa [25]) was “Active”, the Activity (HeLa [26]) was “Active” and the Activity (HeLa [27]) was “Active”. The Activity (HeLa [28]) was “inactive”, the Activity (HeLa [29]) was “Active” and the Activity (HeLa [30]) was “Active”. The Activity (HeLa [31]) was “Active”, the Activity (HeLa [32]) was “Active” and the Activity (HeLa [33]) was “Active”. The Activity (HeLa [34]) was “Active”, the Activity (HeLa [35]) was “Active” and the Activity (TERT-RPE1 [36]) was roughly 70%. For the same compound, the Activity (TERT-RPE1 [37]) was roughly 30%, the EC50 (BRO melanoma cell line) was 0.002 µM and the Activity (HCT-116 [38]) was 100%. The T/C (HCT-116 [39]) was 16%, the Activity [40] was “Non-Toxic” and the Activity [41] was “Non-Toxic”. For the same compound, the Activity (HCT-116 [42]) was “Active”, the T/C (BXPC-3) was 5% and the T/C (A549) was 14%. The Activity (NCI-H460 [43]) was “Active”, the Activity (NCI-H460 [44]) was “Active” and the Activity (NCI-H460 [45]) was “Active”. The Activity (NCI-H460 [46]) was “Active” and the Activity (HCT-116 [47]) was “Active”.

For `COc1cc(OC)c(/C=C/S(=O)(=O)Cc2ccc(OC)c(NCC(=O)O)c2)c(OC)c1` [RIGOSERTIB], the EC50 (HeLa S3) was 0.045 µM, the Activity (HeLa [48]) was “Active” and the Activity (HeLa [49]) was “inactive”. For the same compound, the Activity (HeLa [50]) was “Active” and the Activity (HeLa [51]) was “Active”.
